Source: US20230192764A1, “NOVEL DOPAMINE PRECURSORS” (Yissum Research Development Company of the Hebrew …, priority 2018, published 2023)
“And” between values parts separate entries of the source, which are not always exact repeats. Identical values can stand only once.

Experiments:
p38MAPK phosphorylation = assay: AuF-induced phosphorylation of p38MAPK in SH-SY5Y cells, western blot; type: cell-based, human; conditions: summary statement
Method: Cells were treated with 10 µM AuF with or without SD-444. Phosphorylation was determined by western blot analysis. The amount of each band was quantitated by densitometry and plotted with a linear regression program normalized with β catenin (b-cat).
In the assay, twenty to thirty micrograms of protein samples were loaded on 10-12% SDS-PAGE gels. The proteins were then transferred electrophoretically to nitrocellulose (Whatman, Germany). The blots were blocked by incubation for 1 h at RT in TBS-T (25 mM Tris-HCl pH 7.4, 0.9% NaCl and 0.02% Tween-20) with 4% Difco skim milk (BD, USA), and incubated over-night at 4° C. with the primary antibody: p-p38^MAPK (Thr180/Tyr182), rabbit mAb; p38, rabbit Ab.

[1] = Body weight monitoring in rotenone-treated rats; type: in vivo, Sprague Dawley rats; conditions: for Weight: individual rat, listed as SDA
Method: 1-SD (Rotenone + SD); 2 - SDA (Rotenone + SDA); 3 - Control (Rotenone); 4 -Naive. The experimental groups were comprised of 6 animals for treated groups (1-3) and 2 animals in naive group (4). Rotenone was administrated 3.0 mg/kg intraperitoneally (IP) once a day in the morning (days 1-9). SD 33 mg/kg and SDA 33 mg/kg were administrated intraperitoneally once a day in the afternoon (days 1-9).
Animals weight was measured before initiation of treatment (day 0), on days 4,7, 9 during the experiment and on termination day 11. On day 11, animals were sacrificed and brains were harvested for further histopathological analysis.
IP administration: Rotenone was administrated to groups 1-3. Rotenone was injected intraperitoneally at a dose 3.0 mg/kg once a day in the morning (days 1-9). SD and SDA was administrated both at a dose of 33 mg/kg and were injected intraperitoneally once a day in the afternoon (days 1-9). Group number 4 was untreated, and remained as a naive group.

PC12 cells = assay: Phase microscopy of AuF-induced morphological changes in PC12 cells; type: cell-based; conditions: 2 µM AuF 30 min, washed, 150 µM SDA, 37° C., 4 hrs; listed as SDA
Method: PC12 cells were treated with AuF with or without SD-444. Morphological changes were visualized 4 hr later (magnification x200).
(FIG. 7A) Control untreated PC12 cells (FIG. 7B). PC12 cells were treated with AuF (2 µM; 30 min) lose their morphology and become rounded, as compared to untreated cells. […] Cells were treated with AuF (2 µM) for 30 min, washed and then SDA was added at 25 µM or 100 µM. Cells were visualized 4 hr later (magnification, 100 × and 400 x).
C) Phase microscopy studies: The ability of SD-444 to rescue cells from oxidative stress was tested by exposing the PC12 to 2 µM auranofin for 30 min, and after washing incubated with 250 µM SD-444 at 37° C. for additional 4 hrs.
B) Phase microscopy studies: The ability of SDA to rescue the cells from oxidative stress was tested by exposing the PC12 to auranofin 2 µM for 30 min with or without 150 µM SDA. AuF was washed after 30 min and 150 µM SDA was added and allowed to incubate at 37° C. for additional 4 hrs.

Compound: CC(=O)NC(CS)C(=O)NC(Cc1cccc(O)c1O)C(N)=O (stereo not drawn) [SDA-341, Acetyle-Cys-2,3 dihydroxyphenylalanine-amide]
- p38 phosphorylation (AuF-triggered) (p38MAPK phosphorylation): inhibit
- Weight, group average ([1]; average n=6, day 0 (before treatment)): 304.33 gr
- Weight, group average ([1]; average n=6, day 4): 294.17 gr
- Weight, group average ([1]; average n=6, day 7): 284.33 gr
- Weight, group average ([1]; average n=6, day 9): 275.50 gr
- Weight, group average ([1]; average n=6, day 11): 271.33 gr
- Weight ([1]; day 0 (before treatment), rotenone 3 mg/kg + compound 33 mg/kg IP): 292 gr and 307 gr (2×) and 305 gr and 315 gr and 300 gr
- Weight ([1]; day 4, rotenone 3 mg/kg + compound 33 mg/kg IP): 284 gr and 293 gr and 299 gr (2×) and 294 gr and 296 gr
- Weight ([1]; day 7, rotenone 3 mg/kg + compound 33 mg/kg IP): 274 gr and 283 gr (2×) and 287 gr and 288 gr and 291 gr
- Weight ([1]; day 9, rotenone 3 mg/kg + compound 33 mg/kg IP): 275 gr and 272 gr and 267 gr and 274 gr and 281 gr and 284 gr
- Weight ([1]; day 11, rotenone 3 mg/kg + compound 33 mg/kg IP): 272 gr and 261 gr and 269 gr and 266 gr and 283 gr and 277 gr
- morphology of AuF-treated PC12 cells (PC12 cells): normal morphology
